Measurements: patent publication US20090253629A1 (priority 2008, published 2009)
Converted amounts (≈) assume the structure as drawn. “And” between values parts separate entries of the source, which are not always exact repeats. Equal entries are not always repeated. Where two headings read alike, the source gives them in different places.

Tests used:
[1] = test system: penicillin-resistant serotype 9V Streptococcus pneumoniae (1395); assay type: in vivo, New Zealand white rabbits; conditions: for reduction in bacterial burden in the cerebrospinal fluid (Δ log CFU), Average / reduction in bacterial burden in the cerebrospinal fluid (Δ log CFU): Ceftriaxon treatment; for reduction in bacterial burden in the cerebrospinal fluid (Δ log CFU), Average: average of rabbits 7-10; for reduction in bacterial burden in the cerebrospinal fluid (Δ log CFU): individual rabbits 7-10
Description: (§1) An Isolate of a penicillin-resistant serotype 9V Streptococcus pneumoniae (1395), originally isolated from the CSF of a person with meningitis, was used in the meningitis model. This strain was formerly used for evaluating the effectiveness of treatment of meningitis with Moxifloxacin (see Ostergaard et al., 1998, “Evaluation of moxifloxacin, a new 8-methoxyquinolone, for treatment of meningitis caused by a penicillin-resistant pneumococcus in rabbits”, Antimicrob Agents Chemother 42(7): 1706-1712).
The virulence of the strain was enhanced by passing the bacteria through a mouse peritonitis model. Bacteria from sampled peritoneal fluid were grown on blood agar plates, recovered and diluted in beef-broth with 10% glycerol added and frozen at −80° C.
The bacterial aliquots were thawn and grown on blood-agar plates, suspended in sterile beef-broth to reach an optical density of 3.5 at 540 nm, and subsequently diluted to obtain a final concentration of 1-2×10^6 CFU/ml.
Male New Zealand white rabbits weighing approx. 2500 g was used for the experiments. The rabbits arrived at the facilities 1-2 weeks prior to the experiment to allow for adaptation. They were kept in single cages covered with hay and offered food and water with no restrictions. Veterinarian expertise was available at the laboratory, and the experimental design was approved by the local animal legislation committee.
The rabbit was weighed and anaesthetized with dormicum 0.5 ml/kg (midazolam 5 mg/ml) s.c. and after 10 minutes with hypnorm 0.35 ml/kg (fentanylcitrat+fluanison) i.m.
The ears, scalp and neck of the rabbit were shaved and the skin disinfected. An incision measuring approx. 2 cm was made on the forehead of the rabbit and the scalp was exposed by blunt dissection. 4 bore holes were made demarcating a square and 4 screws were screwed up at right angles to the surface (2.5 to 3 turns). An acrylic helmet, embedding a turnbuckle, was moulded from dental casting material directly onto the scalp of the rabbit and the helmet was cooled under running water. The rabbit was put back into its cage with free access to food and water to rest for 8-10 hours until the time of bacterial inoculation or start of pharmacokinetic treatment study on uninfected rabbits. Analgesia with buprenorfin, 0.1 mg/kg, was given.
The head of the rabbit was immobilised in a stereotactic frame and a spinal canula was introduced in cisterna magna for the inoculation of 1×10^5 CFU pneumococci. After the bacterial inoculation, the rabbit was put back into its cage with access to food and water for another 8 hours.
The rabbit was re-anaesthetized with urethan 3.5 ml/kg ([…] 50%, 1.75 g/kg) s.c. at 7.30 a.m. A venous catheter was applied in the left ear-vein and Mebumal approx. 0.5-1 ml (Pentobarbital 50 mg/ml) i.v. was infused slowly until the rabbit was asleep and deeply anaesthetized. A three-way tap was connected to the venous catheter and syringes containing pentobarbital for supplemental anaesthetics and isotonic NaCl and heparin 1 Ul/ml for flushing were connected to the tap. Rabbits were observed every half hour. When the need for supplemental anaesthesia arose, additional 0.2 ml Mebumal (Pentobarbital 50 mg/ml) was given. During the experiment observations and anaesthetics were recorded in the scheme of the laboratory animal-department and in the book of the Laboratory Animal Inspection.
An arterial canula was applied in the artery of the right ear and used for blood-sampling throughout the experiment. A bolt was fastened to the turnbuckle embedded in the acrylic helmet, and the rabbit's head was fixed in a stereotactic frame. The rabbit remained fixed throughout the experiment.
Cisterna magna was punctured with a spinal-canula, fastened to the stereotactic frame. The canula was left in place throughout the experiment and used for CSF-sampling.

[2] = test system: Streptococcus pneumoniae (1395); test: Minimum inhibitory concentration (MIC) against Streptococcus pneumoniae (1395); assay type: cell-based; conditions: penicillin-resistant serotype 9V, read-out: minimium inhibitory concentration (MIC)
Description: as §1
The synthetic defensin used in the experiment is a polypeptide having the amino acid sequence shown in SEQ ID NO: 1.

[3] = time 0 hours (normalized start)

For CO/N=C(\C(=O)N[C@@H]1C(=O)N2C(C(=O)O)=C(CSc3nc(=O)c(=O)[nH]n3C)CS[C@H]12)c1csc(N)n1 [Ceftriaxone], the “reduction in bacterial burden in the cerebrospinal fluid (Δ log CFU), Average” value (“reduction … (Δ log CFU), Average” for short) [1, 3] was 0.00 Δ log CFU, the “reduction in bacterial burden in the cerebrospinal fluid (Δ log CFU)” value [1, 3] was 0.00 Δ log CFU and the “bacterial burden in the cerebrospinal fluid” value ([1]; time 0 hours (start of treatment), Ceftriaxone 125 mg/kg at 0 h) was 3,480,000 CFU/ml. The “reduction … (Δ log CFU), Average” value ([1]; time 3 hours) was −2.12 Δ log CFU, the “reduction in bacterial burden in the cerebrospinal fluid (Δ log CFU)” value ([1]; time 3 hours) was −2.26 Δ log CFU and −2.11 Δ log CFU and −2.53 Δ log CFU and −1.58 Δ log CFU and the “bacterial burden in the cerebrospinal fluid” value ([1]; time 3 hours, Ceftriaxone 125 mg/kg at 0 h) was 92,500 CFU/ml. For the same molecule, the “reduction … (Δ log CFU), Average” value ([1]; time 5 hours) was −2.98 Δ log CFU, the “reduction in bacterial burden in the cerebrospinal fluid (Δ log CFU)” value ([1]; time 5 hours) was −3.28 Δ log CFU and −2.77 Δ log CFU and −3.72 Δ log CFU and −2.14 Δ log CFU and the “bacterial burden in the cerebrospinal fluid” value ([1]; time 5 hours, Ceftriaxone 125 mg/kg at 0 h) was 25,000 CFU/ml. The “reduction … (Δ log CFU), Average” value ([1]; time 10 hours) was −4.18 Δ log CFU, the “reduction in bacterial burden in the cerebrospinal fluid (Δ log CFU)” value ([1]; time 10 hours) was −5.16 Δ log CFU and −3.57 Δ log CFU and −4.32 Δ log CFU and −3.67 Δ log CFU and the “bacterial burden in the cerebrospinal fluid” value ([1]; time 10 hours, Ceftriaxone 125 mg/kg at 0 h) was 750 CFU/ml. The “bacterial burden in the cerebrospinal fluid” value ([1]; time −10 hours (before treatment), Ceftriaxone group) was 240,000 CFU/ml and the MIC [2] was 0.5 µg/mL (≈ 0.902 µM).
